From article PMC5986712, “Aminobenzothiazole derivatives stabilize the thermolabile p53 cancer mutant Y220C and show anticancer activity in p53-Y220C cell lines” (European Journal of Medicinal Chemistry, 2018)

What was measured:
[1] = biological target: T1, stabilized p53-Y220C DBD (residues 94–312) (Homo sapiens, UniProt P04637, M133L/N239Y/N268D/V203A/Y220C); experiment: Isothermal titration calorimetry (ITC); type: binding; conditions: for Kd: ITC
T1 construct: Stabilized p53-Y220C DBD (residues 94–312) was expressed and purified; 6xHis / lipoyl domain / TEV protease cleavage site (N, cleaved yes); made in house; host or cells: E. coli C41
Description: Isothermal Titration Calorimetry (ITC). ITC experiments were conducted as described. The cell unit contained 50 μM protein in a 25 mM KPi (pH 7.2), 150 mM NaCl, 1 mM TCEP, and 5% (v/v) DMSO assay buffer. The syringe contained 2–5 mM compound in the same buffer.

[2] = biological target: T1, stabilized p53-Y220C DBD (residues 94–312); experiment: Differential scanning fluorimetry (DSF), thermal stabilization of Y220C; type: binding; conditions: 8 μM protein, 10 × SYPRO Orange, 250 μM ligand
Description: DSF was performed as described. […] All samples were measured in triplicate.

[3] = Solubility (qualitative observation); type: physicochemical
[4] = test system: NUGC3 cells (p53-Y220C); experiment: Cell viability assay (CellTiter-Fluor / CellTiter-Glo 2.0), NUGC3; type: cell-based, human; conditions: Homo sapiens, NUGC-3; 72 h, Y220C cell line
Description: (§1) We also envisaged that masking the carboxylate of MB710 as a simple ethylamide MB725 might influence cell permeability and uptake of the scaffold.
(§2) All cell lines were cultured as previously described. Cell viability was measured in quadruplicate (technical replicates) using the CellTiter-Fluor or CellTiter-Glo 2.0 cell viability assay kits (Promega, USA) as previously described.

[5] = test system: NUGC4 cells (wild-type p53); experiment: Cell viability assay, NUGC4; type: cell-based; conditions: Homo sapiens, NUGC-4; 72 h, p53 WT
Description: as §1, §2

[6] = test system: WI38 cells (non-cancerous fibroblast, p53 WT); experiment: Cell viability assay, WI38; conditions: Homo sapiens, WI-38, 72 h, read-out: IC50 WI38
Description: (§3) All cell lines were cultured as previously described [9]. Cell viability was measured in quadruplicate (technical replicates) using the CellTiter-Fluor or CellTiter-Glo 2.0 cell viability assay kits (Promega, USA) as previously described [9].

[7] = test system: BXPC-3 cells (p53-Y220C); experiment: Cell viability assay, BXPC3; conditions: Homo sapiens, BXPC-3, 72 h, read-out: IC50 BXPC3
Description: as §3

[8] = test system: p53 cancer mutant Y220C; experiment: Binding affinity to the Y220C pocket, values taken from earlier papers (ITC/NMR); conditions: Kd ratio

Compound	Kd [1]	ΔTm at 250 µM [2]	further results
CCOc1cc(C(=O)O)c(O)c(I)c1-n1cccc1 [Compound 49, 5-ethoxy-2-hydroxy-3-iodo-4-(1H-pyrrol-1-yl)benzoic acid]	63 µM	1.3 °C	times less potent than the parent iodine ([1]; Kd ratio versus parent iodine (21 μM)): 3
O=C(O)c1cc(OCCC(F)(F)F)c(-n2cccc2)c(I)c1O [Compound 53, 2-hydroxy-3-iodo-4-(1H-pyrrol-1-yl)-5-(3,3,3-trifluoropropoxy)benzoic acid]	108 µM	1.4 °C	–
CC(C)COc1cc(C(=O)O)c(O)c(I)c1-n1cccc1 [Compound 56, 2-hydroxy-3-iodo-5-isobutoxy-4-(1H-pyrrol-1-yl)benzoic acid]	30 µM	1.4 °C	–
O=C(O)c1cc(OCCc2ccccc2)c(-n2cccc2)c(I)c1O [Compound 55, 2-hydroxy-3-iodo-5-phenethoxy-4-(1H-pyrrol-1-yl)benzoic acid]	116 µM	1 °C	–
O=C(O)c1cc(I)cc(I)c1O [Compound 4, 2-hydroxy-3,5-diiodobenzoic acid, reference compound]	–	–	solubility (in words) [3]: water soluble
C=CCOc1cc(C(=O)O)c(O)c(I)c1-n1cccc1 [Compound 51, 5-(allyloxy)-2-hydroxy-3-iodo-4-(1H-pyrrol-1-yl)benzoic acid]	33 µM	1.8 °C	–
CNC(=O)c1cc(I)c(-n2cccc2)c(I)c1O [Compound 12, 2-hydroxy-3,5-diiodo-N-methyl-4-(1H-pyrrol-1-yl)benzamide]	70 µM	0.9 °C	solubility (in words) [3]: substantially less soluble than carboxylic acid 9
COc1ccc(-c2cc(C(=O)O)c(O)c(I)c2-n2cccc2)cc1 [Compound 35, 4-hydroxy-5-iodo-4'-methoxy-6-(1H-pyrrol-1-yl)-[1,1'-biphenyl]-3-carboxylic acid]	122 µM	1 °C	–
Cn1cc(-c2ccccc2)c(-n2cccc2)n1 [Compound 2]	–	–	IC50 [4]: 43 µM; IC50 [5]: > 120 µM; IC50 [6]: ~120 µM; IC50 [7]: 57 µM
CN1CCN(C(=O)c2cc(I)c(-n3cccc3)c(I)c2O)CC1 [Compound 11, (2-hydroxy-3,5-diiodo-4-(1H-pyrrol-1-yl)phenyl)(4-methylpiperazin-1-yl)methanone]	30 µM	1.2 °C	–
COC(=O)c1cc(I)c(-n2cccc2)c(I)c1O [Compound 8, Methyl 2-hydroxy-3,5-diiodo-4-(1H-pyrrol-1-yl)benzoate]	–	-0.1 °C	–
O=C(O)c1cc(I)c(-n2cccc2)c(I)c1O [Compound 9, 2-hydroxy-3,5-diiodo-4-(1H-pyrrol-1-yl)benzoic acid]	–	–	fold more potent than parent fragment 4 [8]: 40 fold
O=c1[nH][nH]c2c(I)c(-n3cccc3)c(I)cc12 [Compound 21, 5,7-diiodo-6-(1H-pyrrol-1-yl)-1,2-dihydro-3H-indazol-3-one]	50 µM	1.5 °C	–
O=C(O)c1cc(-c2ccccc2)c(-n2cccc2)c(I)c1O [Compound 33, 4-hydroxy-5-iodo-6-(1H-pyrrol-1-yl)-[1,1'-biphenyl]-3-carboxylic acid]	306 µM	1 °C	–
O=C(O)c1cc(-c2ccc(F)cc2)c(-n2cccc2)c(I)c1O [Compound 34, 4'-fluoro-4-hydroxy-5-iodo-6-(1H-pyrrol-1-yl)-[1,1'-biphenyl]-3-carboxylic acid]	113 µM	0.8 °C	–
O=C(O)c1cc(OCCO)c(-n2cccc2)c(I)c1O [Compound 54, 2-hydroxy-5-(2-hydroxyethoxy)-3-iodo-4-(1H-pyrrol-1-yl)benzoic acid]	726 µM	0.6 °C	–
CCN(CC)c1nc2c(C(=O)OC)c(O)c(I)c(-n3cccc3)c2s1 [Compound 71, Methyl 2-(diethylamino)-5-hydroxy-6-iodo-7-(1H-pyrrol-1-yl)benzo[d]thiazole-4-carboxylate]	–	–	solubility (in words) [3]: reduced solubility
CN(C)Cc1cc(I)c(-n2cccc2)c(I)c1O [Compound 17, 6-((dimethylamino)methyl)-2,4-diiodo-3-(1H-pyrrol-1-yl)phenol]	60 µM	0.9 °C	–
CN(C)CCNC(=O)c1cc(I)c(-n2cccc2)c(I)c1O [Compound 10, N-(2-(dimethylamino)ethyl)-2-hydroxy-3,5-diiodo-4-(1H-pyrrol-1-yl)benzamide]	–	1.3 °C	solubility (in words) [3]: substantially less soluble than carboxylic acid 9
O=C(NO)c1cc(I)c(-n2cccc2)c(I)c1O [Compound 15, N,2-dihydroxy-3,5-diiodo-4-(1H-pyrrol-1-yl)benzamide]	139 µM	0.8 °C	–
CCN(CC)C1CCN(Cc2cc(C#CCNc3ccccc3)cc(I)c2O)CC1 [Compound 3]	–	–	IC50 [4]: 6 µM; IC50 [5]: 9 µM; IC50 [6]: 7 µM; IC50 [7]: 11 µM
